Source: US5569598A (Lucky Limited Co., priority 1993, dated 1996)
Residues, ends and D or L forms follow the SMILES beside them. *: point of attachment. pNA = O=[N+]([O-])c1ccc(N*)cc1

Columns and labels:
aminopeptidase [1] = experiment: Substrate specificity of the aminopeptidase (paranitroanilide substrates); format: biochemical, Streptomyces thermonitrificans; settings: substrate 10 mM, 1 unit aminopeptidase, 100 mM Tris buffer pH 8.0, 37° C.; activity to leucine-paranitroanilide as 100%
Description: (§1) Enzymol., 19, 514-521(1970).
The substrate specificity of the aminopeptidase was examined as follows. […] The reaction time was regulated in accordance with the substrate so that paranitroanilide is produced in a fixed rate.

aminopeptidase [2] = experiment: Effect of orthophenanthroline on the enzyme activity; format: biochemical, Streptomyces thermonitrificans; settings: 37° C., 1 minute, 0 mM = 100
Description: as §1

[3] = WHO-supplied reference, literature value; cited from earlier work

Row | Compound | Activity(%) of the aminopeptidase according to the substrate (aminopeptidase [1]) [%] | other results
1 | C[C@H](N)C(=O)Nc1ccc([N+](=O)[O-])cc1 [alanine-paranitroanilide] | 0.60 | 
2 | NCC(=O)Nc1ccc([N+](=O)[O-])cc1 [glycine-paranitroanilide] | 0.04 | 
3 | NCC(=O)N[C@@H](Cc1ccccc1)C(=O)Nc1ccc([N+](=O)[O-])cc1 [glycine-phenylalanine-paranitroanilide] (H-Gly-Phe-pNA) | 0.11 | 
4 | c1cnc2c(c1)ccc1cccnc12 [orthophenanthroline] |  | Activity(%) (aminopeptidase [2]; orthophenanthroline 1 mM): 27%; Activity(%) (aminopeptidase [2]; orthophenanthroline 5 mM): 2%
5 | pituitary gland-derivedhuman growth hormone: pituitary gland-derived human growth hormone supplied by World Health Organization |  | potency [3]: 2.5 IU/mg

The next lines start with results.

Row | Activity(%) of the aminopeptidase according to the substrate (aminopeptidase [1]) [%] | Compound | other results
6 | 0.80 | NCC(=O)N1CCC[C@H]1C(=O)Nc1ccc([N+](=O)[O-])cc1 [glycine-proline-paranitroanilide] (H-Gly-Pro-pNA) | 
7 | 100 | CC(C)C[C@H](N)C(=O)Nc1ccc([N+](=O)[O-])cc1 [leucine-paranitroanilide] | 
8 | 0.03 | NCCCC[C@H](N)C(=O)Nc1ccc([N+](=O)[O-])cc1 [lysine-paranitroanilide] | 
9 | 3.60 | CSCC[C@H](N)C(=O)Nc1ccc([N+](=O)[O-])cc1 [methionine-paranitroanilide] | 
